Assays:
[1] = target: T1, JAK2 (Homo sapiens, UniProt O60674); test: Kinobeads assay, JAK2 (competition binding in cell lysate, dot blot detection); details: mixed Molt4/Ramos lysate
T1 construct: endogenous in cells; host or cells: Molt4 (ATCC CRL-1582) and Ramos (ATCC CRL-1596) cell lysate; mixed Molt4/Ramos lysate 1:2
Protocol: (§1) The compounds of the present invention as described in the previous examples were tested in a Kinobeads™ assay as described for ZAP-70 (WO-A 2007/137867). Briefly, test compounds (at various concentrations) and the affinity matrix with the immobilized aminopyrido-pyrimidine ligand 24 were added to cell lysate aliquots and allowed to bind to the proteins in the lysate sample. After the incubation time the beads with captured proteins were separated from the lysate. Bound proteins were then eluted and the presence of JAK2 and JAK3 was detected and quantified using specific antibodies in a dot blot procedure and the Odyssey infrared detection system. Dose response curves for individual kinases were generated and IC50 values calculated. Kinobeads™ assays for ZAP-70 (WO-A 2007/137867) and for kinase selectivity profiling (WO-A 2006/134056) have been previously described.
(§2) 5×DP buffer: 250 mM Tris-HCl pH 7.4, 25% Glycerol, 7.5 mM MgCl2, 750 mM NaCl, 5 mM Na3VO4; filter the 5×DP buffer through a 0.22 μm filter and store in aliquots at −80° C. The 5×DP buffer is diluted with H2O to 1×DP buffer containing 1 mM DTT and 25 mM NaF.
(§3) Stock solutions of test compounds were prepared in DMSO. In a 96 well plate 30 μL solution of diluted test compounds at 5 mM in DMSO were prepared. Starting with this solution a 1:3 dilution series (9 steps) was prepared. For control experiments (no test compound) a buffer containing 2% DMSO was used.
(§4) Molt4 cells (ATCC catalogue number CRL-1582) and Ramos cells (ATCC catalogue number CRL-1596) were grown in 1 L Spinner flasks (Integra Biosciences, #182101) in suspension in RPMI 1640 medium (Invitrogen, #21875-034) supplemented with 10% Fetal Bovine Serum (Invitrogen) at a density between 0.15×10^6 and 1.2×10^6 cells/mL. Cells were harvested by centrifugation, washed once with 1×PBS buffer (Invitrogen, #14190-094) and cell pellets were frozen in liquid nitrogen and subsequently stored at −80° C. Cells were homogenized in a Potter S homogenizer in lysis buffer: 50 mM Tris-HCl, 0.8% NP40, 5% glycerol, 150 mM NaCl, 1.5 mM MgCl2, 25 mM NaF, 1 mM sodium vanadate, 1 mM DTT, pH 7.5. One complete EDTA-free tablet (protease inhibitor cocktail, Roche Diagnostics, 1873580) per 25 mL buffer was added. The material was dounced 10 times using a mechanized POTTER S, transferred to 50 mL falcon tubes, incubated for 30 minutes on ice and spun down for 10 minutes at 20,000 g at 4° C. (10,000 rpm in Sorvall SLA600, precooled). The supernatant was transferred to an ultracentrifuge (UZ)-polycarbonate tube (Beckmann, 355654) and spun for 1 hour at 100.000 g at 4° C. (33.500 rpm in Ti50.2, precooled). The supernatant was transferred again to a fresh 50 mL falcon tube, the protein concentration was determined by a Bradford assay (BioRad) and samples containing 50 mg of protein per aliquot were prepared. The samples were immediately used for experiments or frozen in liquid nitrogen and stored frozen at −80° C.
(§5) Cell lysate (approximately 50 mg protein per plate) was thawed in a water bath at room temperature and then stored on ice. To the thawed cell lysate 1×DP 0.8% NP40 buffer containing protease inhibitors (1 tablet for 25 mL buffer; EDTA-free protease inhibitor cocktail; Roche Diagnostics 1873580) was added in order to reach a final protein concentration of 10 mg/mL total protein. The diluted cell lysate was stored on ice. Mixed Molt4/Ramos lysate was prepared by combining one volume of Molt4 lysate and two volumes of Ramos lysate (ratio 1:2).
(§6) Plates were sealed and incubated for 3 hours in a cold room on a plate shaker (Heidolph tiramax 1000) at 750 rpm. Afterwards the plate was washed 3 times with 230 μL washing buffer (1×DP 0.4% NP40). The filter plate was placed on top of a collection plate (Greiner bio-one, PP-microplate 96 well V-shape, 65120) and the beads were then eluted with 20 μL of sample buffer (100 mM Tris, pH 7.4, 4% SDS, 0.00025% bromophenol blue, 20% glycerol, 50 mM DTT). […]

[2] = target: T2, JAK3 (Homo sapiens, UniProt P52333); test: Kinobeads assay, JAK3 (competition binding in cell lysate, dot blot detection); details: mixed Molt4/Ramos lysate
T2 construct: endogenous in cells; host or cells: Molt4 (ATCC CRL-1582) and Ramos (ATCC CRL-1596) cell lysate; mixed Molt4/Ramos lysate 1:2
T2 sequence (P52333 1-1124): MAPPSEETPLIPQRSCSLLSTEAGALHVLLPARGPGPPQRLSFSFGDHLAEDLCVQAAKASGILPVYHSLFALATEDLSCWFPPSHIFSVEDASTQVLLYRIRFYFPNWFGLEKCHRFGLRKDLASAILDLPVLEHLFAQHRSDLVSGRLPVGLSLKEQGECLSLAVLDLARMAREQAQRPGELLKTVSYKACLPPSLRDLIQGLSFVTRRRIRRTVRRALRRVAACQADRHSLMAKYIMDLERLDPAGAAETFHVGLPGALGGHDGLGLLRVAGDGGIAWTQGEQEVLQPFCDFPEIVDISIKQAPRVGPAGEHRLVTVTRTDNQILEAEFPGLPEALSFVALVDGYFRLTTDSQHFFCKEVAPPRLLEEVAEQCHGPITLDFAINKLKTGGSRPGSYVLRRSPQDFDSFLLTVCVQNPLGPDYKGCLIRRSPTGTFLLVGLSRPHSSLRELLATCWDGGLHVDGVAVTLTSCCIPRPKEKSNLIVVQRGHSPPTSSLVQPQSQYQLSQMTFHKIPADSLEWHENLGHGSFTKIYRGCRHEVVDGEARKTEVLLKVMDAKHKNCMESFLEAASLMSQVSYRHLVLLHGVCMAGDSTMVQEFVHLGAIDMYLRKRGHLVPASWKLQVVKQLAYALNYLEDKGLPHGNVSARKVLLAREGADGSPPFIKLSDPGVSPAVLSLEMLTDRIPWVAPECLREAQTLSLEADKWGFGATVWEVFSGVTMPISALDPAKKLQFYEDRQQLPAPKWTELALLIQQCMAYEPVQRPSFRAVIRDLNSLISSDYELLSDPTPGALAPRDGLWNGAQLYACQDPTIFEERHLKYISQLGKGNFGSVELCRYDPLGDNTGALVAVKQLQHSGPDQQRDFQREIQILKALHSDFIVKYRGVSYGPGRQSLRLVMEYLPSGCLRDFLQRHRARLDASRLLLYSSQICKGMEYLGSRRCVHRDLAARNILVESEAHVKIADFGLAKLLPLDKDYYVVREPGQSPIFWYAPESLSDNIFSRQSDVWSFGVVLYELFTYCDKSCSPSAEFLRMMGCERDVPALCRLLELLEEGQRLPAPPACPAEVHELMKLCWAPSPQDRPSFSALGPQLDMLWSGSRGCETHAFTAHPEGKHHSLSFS
Protocol: as §1, §2, §3, §4, §5, §6

T1 sequence (O60674 whole entry): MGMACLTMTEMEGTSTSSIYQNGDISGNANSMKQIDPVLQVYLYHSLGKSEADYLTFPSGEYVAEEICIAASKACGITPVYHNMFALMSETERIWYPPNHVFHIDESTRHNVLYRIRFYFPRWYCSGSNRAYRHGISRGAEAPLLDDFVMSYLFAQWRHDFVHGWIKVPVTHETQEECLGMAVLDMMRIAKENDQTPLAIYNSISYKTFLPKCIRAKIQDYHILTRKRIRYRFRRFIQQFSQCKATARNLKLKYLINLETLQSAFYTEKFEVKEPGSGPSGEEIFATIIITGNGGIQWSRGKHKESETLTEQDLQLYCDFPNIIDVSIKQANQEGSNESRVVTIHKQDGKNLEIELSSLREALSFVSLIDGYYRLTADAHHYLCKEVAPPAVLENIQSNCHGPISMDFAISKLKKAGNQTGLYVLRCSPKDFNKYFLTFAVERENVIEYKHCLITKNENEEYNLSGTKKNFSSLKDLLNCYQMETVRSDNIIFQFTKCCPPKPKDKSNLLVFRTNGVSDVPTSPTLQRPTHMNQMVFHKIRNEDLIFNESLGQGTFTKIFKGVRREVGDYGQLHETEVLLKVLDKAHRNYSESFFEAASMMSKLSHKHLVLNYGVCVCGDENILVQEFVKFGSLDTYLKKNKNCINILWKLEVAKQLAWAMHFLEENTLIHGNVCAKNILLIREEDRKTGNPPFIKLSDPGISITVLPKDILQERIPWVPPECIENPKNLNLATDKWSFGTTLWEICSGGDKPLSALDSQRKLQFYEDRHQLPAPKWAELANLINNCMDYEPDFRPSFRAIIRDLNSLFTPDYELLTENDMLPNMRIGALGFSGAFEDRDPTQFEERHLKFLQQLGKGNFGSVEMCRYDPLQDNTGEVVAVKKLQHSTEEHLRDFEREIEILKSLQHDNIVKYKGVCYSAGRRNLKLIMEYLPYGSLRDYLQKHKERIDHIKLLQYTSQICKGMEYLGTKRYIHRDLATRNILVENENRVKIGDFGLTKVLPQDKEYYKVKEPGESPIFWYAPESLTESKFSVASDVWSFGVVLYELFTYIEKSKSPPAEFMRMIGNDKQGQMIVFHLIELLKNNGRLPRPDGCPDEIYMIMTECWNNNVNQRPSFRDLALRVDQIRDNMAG

Structure (SMILES): CN1CCCC(Cn2ncc3cnc(Nc4cnn(C)c4)nc32)C1 (stereo not drawn) [Example 6, N-(1-methyl-1H-pyrazol-4-yl)-1-((1-methylpiperidin-3-yl)methyl)-1H-pyrazolo[3,4-d]pyrimidin-6-amine]
- IC50 [1]: 1 to 10 µM
- IC50 [2]: < 100 nM

Structure (SMILES): Cn1cc(Nc2ncc3cnn(CC4CCCN(CCO)C4)c3n2)cn1 (stereo not drawn) [Example 66, 2-(3-((6-((1-methyl-1H-pyrazol-4-yl)amino)-1H-pyrazolo[3,4-d]pyrimidin-1-yl)methyl)piperidin-1-yl)ethanol]
- IC50 [1]: 1 to 10 µM
- IC50 [2]: < 100 nM

Structure (SMILES): CC1CCC(n2ncc3cnc(Nc4cnn(C)c4)nc32)C1 (mixture of isomers) [Example 15, N-(1-Methyl-1H-pyrazol-4-yl)-1-(3-methylcyclopentyl)-1H-pyrazolo[3,4-d]pyrimidin-6-amine]
- IC50 [1]: 1 to 10 µM
- IC50 [2]: 100 to 1000 nM

Structure (SMILES): COCCOC(=O)N1CCCC(Cn2ncc3cnc(Nc4cnn(C)c4)nc32)C1 (stereo not drawn) [Example 45, 2-methoxyethyl 3-((6-((1-methyl-1H-pyrazol-4-yl)amino)-1H-pyrazolo[3,4-d]pyrimidin-1-yl)methyl)piperidine-1-carboxylate]
- IC50 [1]: > 10 µM
- IC50 [2]: 100 to 1000 nM

Structure (SMILES): Cn1cc(Nc2ncc3cnn(CCCNS(C)(=O)=O)c3n2)cn1 [Example 2, N-(3-(6-(1-methyl-1H-pyrazol-4-ylamino)-1H-pyrazolo[3,4-d]pyrimidin-1-yl)propyl)methanesulfonamide]
- IC50 [1]: 1 to 10 µM
- IC50 [2]: 100 to 1000 nM

Structure (SMILES): CS(=O)(=O)N1CCCC(Cn2ncc3cnc(Nc4cnn(CCO)c4)nc32)C1 (stereo not drawn) [Example 39, 2-(4-((1-((1-(methylsulfonyl)piperidin-3-yl)methyl)-1H-pyrazolo[3,4-d]pyrimidin-6-yl)amino)-1H-pyrazol-1-yl)ethanol]
- IC50 [1]: 1 to 10 µM
- IC50 [2]: < 100 nM

Structure (SMILES): CC(=O)NC1CCC(n2ncc3cnc(Nc4cnn(C)c4)nc32)CC1 (stereo not drawn) [Example 22, N-(4-(6-((1-methyl-1H-pyrazol-4-yl)amino)-1H-pyrazolo[3,4-d]pyrimidin-1-yl)cyclohexyl)acetamide]
- IC50 [1]: 1 to 10 µM
- IC50 [2]: 100 to 1000 nM

Structure (SMILES): C[C@H]1CCCC[C@@H]1n1ncc2cnc(Nc3cnn(C)c3)nc21 (racemic) [Example 7, Rac-trans-N-(1-methyl-1H-pyrazol-4-yl)-1-(2-methylcyclohexyl)-1H-pyrazolo[3,4-d]pyrimidin-6-amine]
- IC50 [1]: 1 to 10 µM
- IC50 [2]: < 100 nM

Structure (SMILES): COCCC(=O)N1CCCC(Cn2ncc3cnc(Nc4cnn(C)c4)nc32)C1 (stereo not drawn) [Example 27, 3-methoxy-1-(3-((6-((1-methyl-1H-pyrazol-4-yl)amino)-1H-pyrazolo[3,4-d]pyrimidin-1-yl)methyl)piperidin-1-yl)propan-1-one]
- IC50 [1]: 1 to 10 µM
- IC50 [2]: 100 to 1000 nM

Structure (SMILES): Cn1cc(Nc2ncc3cnn(CC4CCCN(C(=O)CC#N)C4)c3n2)cn1 (stereo not drawn) [Example 26, 3-(3-((6-((1-methyl-1H-pyrazol-4-yl)amino)-1H-pyrazolo[3,4-d]pyrimidin-1-yl)methyl)piperidin-1-yl)-3-oxopropanenitrile]
- IC50 [1]: 1 to 10 µM
- IC50 [2]: < 100 nM

Structure (SMILES): COCCCN1CCCC(Cn2ncc3cnc(Nc4cnn(C)c4)nc32)C1 (stereo not drawn) [Example 58, 1-((1-(3-methoxypropyl)piperidin-3-yl)methyl)-N-(1-methyl-1H-pyrazol-4-yl)-1H-pyrazolo[3,4-d]pyrimidin-6-amine]
- IC50 [1]: > 10 µM
- IC50 [2]: 100 to 1000 nM

Structure (SMILES): CCOC(=O)N1CCCC(Cn2ncc3cnc(Nc4cnn(C)c4)nc32)C1 (stereo not drawn) [Example 36, ethyl 3-((6-((1-methyl-1H-pyrazol-4-yl)amino)-1H-pyrazolo[3,4-d]pyrimidin-1-yl)methyl)piperidine-1-carboxylate]
- IC50 [1]: > 10 µM
- IC50 [2]: 100 to 1000 nM

Structure (SMILES): N#CCCN1CCCC(Cn2ncc3cnc(Nc4cnn(CC(F)F)c4)nc32)C1 (stereo not drawn) [Example 57, 3-(3-((6-((1-(2,2-difluoroethyl)-1H-pyrazol-4-yl)amino)-1H-pyrazolo[3,4-d]pyrimidin-1-yl)methyl)piperidin-1-yl)propanenitrile]
- IC50 [1]: > 10 µM
- IC50 [2]: < 100 nM

Structure (SMILES): Cn1cc(Nc2ncc3cnn(C4CCN(C(=O)CC#N)CC4)c3n2)cn1 [Example 24, 3-(4-(6-((1-methyl-1H-pyrazol-4-yl)amino)-1H-pyrazolo[3,4-d]pyrimidin-1-yl)piperidin-1-yl)-3-oxopropanenitrile]
- IC50 [1]: 1 to 10 µM
- IC50 [2]: 100 to 1000 nM

Structure (SMILES): CC1CCCC1n1ncc2cnc(Nc3cnn(C)c3)nc21 (stereo not drawn) [Example 14, N-(1-Methyl-1H-pyrazol-4-yl)-1-(2-methylcyclopentyl)-1H-pyrazolo[3,4-d]pyrimidin-6-amine]
- IC50 [1]: > 10 µM
- IC50 [2]: 100 to 1000 nM

Structure (SMILES): CCNC(=O)N1CCCC(Cn2ncc3cnc(Nc4cnn(C)c4)nc32)C1 (stereo not drawn) [Example 51, N-ethyl-3-((6-((1-methyl-1H-pyrazol-4-yl)amino)-1H-pyrazolo[3,4-d]pyrimidin-1-yl)methyl)piperidine-1-carboxamide]
- IC50 [1]: 1 to 10 µM
- IC50 [2]: < 100 nM

Structure (SMILES): Cn1cc(Nc2ncc3cnn(CC4CCCN(CCCS(C)(=O)=O)C4)c3n2)cn1 (stereo not drawn) [Example 62, N-(1-methyl-1H-pyrazol-4-yl)-1-((1-(3-(methylsulfonyl)propyl)piperidin-3-yl)methyl)-1H-pyrazolo[3,4-d]pyrimidin-6-amine]
- IC50 [1]: 1 to 10 µM
- IC50 [2]: < 100 nM

Structure (SMILES): Cn1cc(Nc2ncc3cnn(C4CCCCCC4)c3n2)cn1 [Example 20, 1-Cycloheptyl-N-(1-methyl-1H-pyrazol-4-yl)-1H-pyrazolo[3,4-d]pyrimidin-6-amine]
- IC50 [1]: 1 to 10 µM
- IC50 [2]: < 100 nM
